Literature values as cited in publication PMC8448162, “Single- and Multiple-Ascending-Dose Study of the Safety, Tolerability, and Pharmacokinetics of the Polymyxin Derivative SPR206” (Antimicrobial Agents and Chemotherapy, 2021).

Tests used:
[1] = system: kidney; settings: in vivo; cited from earlier work
[2] = system: bacterial burden in CFU/g; set-up: method as in earlier work; settings: 20 mg/kg, infection models in mice; cited from earlier work
[3] = system: kidney; settings: mouse model; cited from earlier work

colistin
incidence of acute kidney injury [1]: up to 60%

polymyxin B [reference compound]
change from baseline in Log10 (bacterial burden in CFU/g) [2]: −2.8 Log10
histopathological changes in the kidney [3]: all animals
